Laboratory results published in article PMC5381078, “Carboxylate derivatives of tributyltin (IV) complexes as anticancer and antileishmanial agents” (DARU Journal of Pharmaceutical Sciences, 2017).
Converted amounts (≈) assume the structure as drawn. Numbered stars: 1 amine (or outer) side, 2 acyl side, 3 side chain; on linkers, the order of the positions; unused ones are H or OH. Bridge positions count the residues as written; N and C are the ends. Square brackets hold non-standard residues; d marks the D form. Peptide text beside a SMILES is read from it. X1 = CC(C)CCCCCCCCC[C@H](CC(=O)[*:1])O[*:2]

What was measured:
HepG2 cell line = assay: Cytotoxicity against HepG2 cell line (SRB assay); format: cell-based, human; details: for HepG2 % growth inhibition: 20 μg/mL
Method: Cytotoxicity was further evaluated against HepG2 cell line by sulforhodamine B (SRB) colorimetric assay. Dulbecco's Modified Eagle Medium (DMEM) supplemented with 10% FBS, 100 μg/mL streptomycin sulfate, 100 IU/mL penicillin G sodium and 0.25 μg/mL amphotericin B was used to culture HepG2 cells in CO2 (5%) incubator (Panasonic, Japan MCO-18 AC-PE) at 37 °C. An aliquot of 20 μL (1% DMSO in PBS) of samples was added to 180 μL of cell culture at an assay density of 1x10^5 cells/mL in 96-well plate. The plate was incubated at 37 °C for 72 h in CO2 incubator. Final concentration of compounds/standard was 20 μg/mL. Doxorubicin and 1% v/v DMSO in PBS ere used as positive and negative controls respectively. An equivalent number of cells in twelve wells of 96-well plate were incubated for 1 h at 37 °C and labeled as day zero control. Later, cells were fixed by adding 50 μL of cold 20% w/v TCA for 1 h at 4 °C. These were washed with tap water, air dried and stained with 50 μL of 0.057% w/v SRB in 1% v/v acetic acid for 30 min at room temperature. Cells were again washed with 1% v/v acetic acid, dried overnight and 200 μL of 10 mM Tris base (pH 10) was used to solubilize the bound dye for 1 h. Absorbance was measured at 515 nm using a microplate reader. Percentage of growth inhibition was calculated as: % inhibition = 100 – [(As – Ao) / (An – Ao) × 100], where, Ao, As and An are absorbance of day zero control, samples and negative control respectively. IC50 values were determined using 3-fold dilutions of the samples.

THP-1 cell line = assay: Cytotoxicity against THP-1 cell line (MTT assay); format: cell-based, human; details: 72 h; for THP-1 % growth inhibition: 20 μg/mL
Method: Cytotoxicity of tributyltin (IV) compounds against THP-1 cell line was determined by 3-(4,5-dimethylthiazol-2-yl)-2,5-diphenyl tetrazolium bromide (MTT) assay. THP-1 cells were cultured in complete growth medium comprising RPMI-1640 (pH 7.4) supplemented with 2.2 g/L NaHCO3 and 10% v/v heat inactivated fetal bovine serum (HIFBS). An aliquot of 20 μL of samples in 1% DMSO in PBS and 180 μL of THP-1 cells were mixed in 96-well plate. Cells were added at an assay density of 1 × 10^4 cells/mL whereas sample/standard was added to achieve the final concentration of 20 μg/mL. The plate was incubated at 37 °C for 72 h in humidified 5% carbon dioxide incubator (Panasonic, Japan MCO-18 AC-PE). Vincristine and 1% DMSO in PBS were used as positive and negative controls respectively. After incubation, 20 μL of pre-filter sterilized MTT solution (4 mg/mL in distilled water) was added in plates and incubated for 4 h at 37 °C in CO2 incubator. Later, colored formazan crystals were separated by removing supernatant and dissolved in 100 μL of DMSO. Reaction was allowed to stand for 1 h to ensure complete dissolution and absorbance was measured at 540 nm using microplate reader (Biotech USA, Elx 800).

[1] = tested on: promastigotes of Leishmania tropica kwh 23; assay: Antileishmanial activity (MTT assay); format: cell-based; details: 72 h; for Antileishmanial % growth inhibition (mortality, lethality): 20 μg/mL; for Antileishmanial LC50: MTT
Method: Antileishmanial activity against the promastigotes of Leishmania tropica kwh 23 was evaluated by a quantitative colorimetric assay using 3-(4,5-dimethylthiazol-2-yl)-2, 5-diphenyl tetrazolium bromide (MTT) with minor modifications. […] […] Negative control wells contained 1% DMSO in PBS. All samples were run in triplicate. Afterwards, plates were incubated for 4 h at 24 °C with 20 μL of MTT (4 mg/mL in distilled water) to determine the cell viability. Supernatant from each well was carefully removed leaving behind formazan crystals. Colored formazan crystals were dissolved in 100 μL of DMSO by setting those aside for 1 h to ensure complete dissolution. Cell viability was estimated by measuring absorbance at 540 nm using microplate reader and percentage growth inhibition was calculated.

isolated lymphocytes = assay: Cytotoxicity against isolated lymphocytes (MTT assay); format: cell-based, human; details: 24 h
Method: Lymphocytes were isolated using previously described protocol with some modifications. Informed consent was obtained from volunteers and procedure was conducted according to international ethical guidelines after gaining approval from the ethical committee of the Quaid-i-Azam University. A volume of 3 mL of blood was obtained from a healthy donor by venipuncture and diluted (1:1) with PBS. It was layered over 2 mL Histopaque-1077 and centrifuged at 800 × g for 20 min. The buffy coat was aspirated into 5 mL of PBS and centrifuged at […] for 4 min to pellet the lymphocytes. The pellet was suspended in 1 mL of RPMI-1640 and cell density was adjusted to get 1 × 10^5 cells/mL. For cytotoxicity determination, 20 μL of samples (20 μg/mL) or vincristine or 1% DMSO in PBS and 180 μL of lymphocyte suspension were incubated in 96-well plate at 37 °C for 24 h in humidified 5% carbon dioxide incubator (Panasonic, Japan MCO-18 AC-PE). Phytohaemagglutinin (PHA) was added in medium to stimulate lymphocyte growth. Afterwards, MTT assay was done as described above. IC50 values were determined using 3-fold dilutions of the samples.

[2] = tested on: Leishmania tropica kwh 23 promastigotes; assay: Photosensitizing effect against leishmania; format: cell-based; details: for Photosensitizing effect % growth inhibition, Sunlight with IR filter: 15 min; for Photosensitizing effect % growth inhibition, Sunlight: 15 min sunlight
Method: Photosensitizing effect of tributyltin (IV) compounds was determined in three parallel groups. Samples and controls were exposed for 15 min to sunlight (168 W/m^2 of sun intensity) or sunlight with IR filter or dark conditions. The relative intensity of sunlight was measured by a CCD spectrometer (Ocean Optics, model HR4000). Later, plates were incubated at 25 °C for 72 h and cell viability was determined by MTT assay as given above. In this assay, samples were tested at concentrations showing less than 55% inhibition in primary antileishmanial assay to exclude false positive.

Streptomyces 85E = assay: Protein kinase inhibition assay (Streptomyces disc assay); format: cell-based; details: for MIC for PK inhibition: minimum inhibitory concentration
Method: Protein kinase inhibitory activity of the tributyltin (IV) compounds was measured against Streptomyces 85E strain using previously described protocol. Culture of Streptomyces 85E was refreshed in tryptic soy broth and 100 μL of this was swabbed on sterile ISP4 medium under aseptic conditions. […] Diameter (mm) of zone of inhibition (ZOI) around all samples and controls was measured as clear zone (CZ) and bald zone (BZ). […] BZ is indicative of PK inhibition.

[3] = 6.25 μg/disc, BZ indicative of PK inhibition
[4] = 50 μg/disc, BZ indicative of PK inhibition, (-) shows no ZOI

| Structure (SMILES) | HepG2 % growth inhibition (HepG2 cell line; 72 h) | HepG2 IC50 (HepG2 cell line; 72 h, 3-fold dilutions) | THP-1 % growth inhibition (THP-1 cell line) | Antileishmanial % growth inhibition (mortality, lethality) [1] | Antileishmanial LC50 [1] | ZOI BZ (bald zone) (Streptomyces 85E; [3]) | ZOI CZ (clear zone) (Streptomyces 85E; 50 μg/disc, (-) shows no ZOI) | MIC for PK inhibition (Streptomyces 85E) | Isolated lymphocytes % growth inhibition (isolated lymphocytes; 20 μg/mL) | Photosensitizing effect % growth inhibition, Control ([2]; 0.092 μg/mL) | Photosensitizing effect % growth inhibition, Dark ([2]; 0.092 μg/mL) | Photosensitizing effect % growth inhibition, Sunlight with IR filter ([2]; 0.092 μg/mL) | Photosensitizing effect % growth inhibition, Sunlight ([2]; 0.092 μg/mL) | also measured |
| --- | --- | --- | --- | --- | --- | --- | --- | --- | --- | --- | --- | --- | --- | --- |
| CCC[CH2][Sn]([CH2]CCC)([CH2]CCC)[O]C(=O)COc1ccc(OCC(=O)[O][Sn]([CH2]CCC)([CH2]CCC)[CH2]CCC)cc1 [Ch-409, bis(tributylstannyl) 2,2’-(1,4-phenylenebis(oxy))diacetate] | 99.5 ± 3.15 % | 0.08 ± 0.001 µg/mL | 19.4 ± 1.41% | 97.5 ± 1.98 % | 0.954 ± 0.158 µg/mL | 30 ± 1.17 mm | 30 ± 1.75 mm | 0.781 ± 0.002 μg/disc |  |  |  |  |  | Isolated lymphocytes IC50 (isolated lymphocytes): 15.18 ± 0.75ǂ μg/mL; Photosensitizing effect % growth inhibition, Control ([2]; 0.55 μg/mL): 52.05 ± 1.98%; Photosensitizing effect % growth inhibition, Dark ([2]; 0.55 μg/mL): 56.9 ± 0.02%; Photosensitizing effect % growth inhibition, Sunlight with IR filter ([2]; 0.55 μg/mL): 47.5 ± 1.56%; Photosensitizing effect % growth inhibition, Sunlight ([2]; 0.55 μg/mL): 57.63 ± 1.99%; ZOI CZ (clear zone) (Streptomyces 85E; 6.25 μg/disc, (-) shows no ZOI): 12 ± 0.19 mm; ZOI BZ (bald zone) (Streptomyces 85E; [4]): 31 ± 1.5 mm |
| CCC[CH2][Sn]([CH2]CCC)([CH2]CCC)[O]C(=O)/C=C\C(=O)Nc1ccc(C(=O)OCC)cc1 [Ch-431, ethyl (Z)-4-(4-oxo-4-((tributylstannyl)oxy)but-2-enamido)benzoate] | 96.2 ± 2.23 % | 5.48 ± 0.16 µg/mL | 42.7 ± 1.13% | 97.5 ± 2.75 % | 0.078 ± 0.002 µg/mL | 26 ± 0.16 mm | 31 ± 0.78 mm | 0.049 ± 0.002 μg/disc | 10.7 ± 1.17ǂ % | 50.7 ± 1.25% | 51.5 ± 1.35% | 47.5 ± 0.99% | 53.2 ± 1.55% | ZOI CZ (clear zone) (Streptomyces 85E; 6.25 μg/disc, (-) shows no ZOI): 10 ± 0.33 mm; ZOI BZ (bald zone) (Streptomyces 85E; [4]): 33 ± 1.15 mm |
| CCC[CH2][Sn]([CH2]CCC)([CH2]CCC)[O]C(=O)CCC(=O)Nc1ccc(C(=O)[O][Sn]([CH2]CCC)([CH2]CCC)[CH2]CCC)cc1 [Ch-448, tributylstannyl 4-(4-oxo-4-((tributylstannyl)oxy)butanamido)benzoate] | 97.1 ± 2.34 % | 3.45 ± 0.63 µg/mL | 43.1 ± 2.29% | 96.5 ± 2.67 % | 0.576 ± 0.088 µg/mL | 25 ± 1.75 mm | 31 ± 1.05 mm | 0.781 ± 0.002 μg/disc | 23.6 ± 1.07ǂ % |  |  |  |  | Photosensitizing effect % growth inhibition, Control ([2]; 0.55 μg/mL): 54.65 ± 2.75%; Photosensitizing effect % growth inhibition, Dark ([2]; 0.55 μg/mL): 50.16 ± 1.19%; Photosensitizing effect % growth inhibition, Sunlight with IR filter ([2]; 0.55 μg/mL): 52.9 ± 1.17%; Photosensitizing effect % growth inhibition, Sunlight ([2]; 0.55 μg/mL): 49.7 ± 0.89% |
| CCC[CH2][Sn]([CH2]CCC)([CH2]CCC)[O]C(=O)c1ccccc1C(=O)Nc1cccc2ccccc12 [Ch-450, tributylstannyl 2-(naphthalene-1-ylcarbamoyl)benzoate] | 98.5 ± 1.85 % | 2.81 ± 0.34 µg/mL |  | 97.4 ± 1.35 % | 0.361 ± 0.017 µg/mL | 28 ± 2.5 mm | 32 ± 1.13 mm | 0.195 ± 0.001 μg/disc | 11.7 ± 0.05ǂ % | 24.5 ± 1.63% | 26.34 ± 0.15% | 20.7 ± 0.43% | 32.12 ± 1.28% |  |
| CCC[CH2][Sn]([CH2]CCC)([CH2]CCC)[O]C(=O)/C=C\C(=O)Nc1cccc(C)c1C [Ch-459, tributylstannyl (Z)-4-((2,3-dimethylphenyl)amino)-4-oxobut-2-enoate] | 96.5 ± 4.66 % | 0.62 ± 0.005 µg/mL |  | 97.9 ± 3.99 % | 0.323 ± 0.002 µg/mL | 30 ± 0.24 mm | 35 ± 0.99 mm | 0.391 ± 0.004 μg/disc |  | 20.1 ± 0.59% | 22.7 ± 1.05% | 30.14 ± 1.47% | 25.5 ± 1.75% | Isolated lymphocytes IC50 (isolated lymphocytes): 5.78 ± 0.34ǂ μg/mL |
| COc1cccc2c1C(=O)c1c(O)c3c(c(O)c1C2=O)C[C@@](O)(C(=O)CO)C[C@@H]3O[C@H]1C[C@H](N)[C@H](O)[C@H](C)O1 [Doxorubicin, reference compound] |  |  |  |  |  |  |  |  |  |  |  |  |  | inhibition at 20 µg/mL (HepG2 cell line; Homo sapiens, HepG2, 20 μg/mL, 72 h, read-out: HepG2 % growth inhibition): 97.2 ± 1.14%; IC50 (HepG2 cell line; Homo sapiens, HepG2, 72 h, 3-fold dilutions): 5.36 ± 0.75 µg/mL (≈ 9.86 µM) |
| CC(C)CCCCCCCCC[C@@H]1CC(=O)N[C@@H](CCC(=O)O)C(=O)N[C@@H](CC(C)C)C(=O)N[C@H](CC(C)C)C(=O)N[C@@H](C(C)C)C(=O)N[C@@H](CC(=O)O)C(=O)N[C@H](CC(C)C)C(=O)N[C@@H](CC(C)C)C(=O)O1 [Surfactin, reference compound] (EL[dL]VD[dL]L; linker N-C via X1) |  |  |  |  |  |  |  |  |  |  |  |  |  | ZOI BZ (bald zone) (Streptomyces 85E; Surfactin positive control, printed 10 μg/mL): 23 ± 1.98 mm |
| CC[C@]1(O)C[C@H]2CN(CCc3c([nH]c4ccccc34)[C@@](C(=O)OC)(c3cc4c(cc3OC)N(C=O)[C@H]3[C@@](O)(C(=O)OC)[C@H](OC(C)=O)[C@]5(CC)C=CCN6CC[C@]43[C@@H]65)C2)C1 [Vincristine, reference compound] |  |  |  |  |  |  |  |  |  |  |  |  |  | inhibition at 20 µg/mL (THP-1 cell line; Homo sapiens, THP-1, 20 μg/mL, read-out: THP-1 % growth inhibition): 100%; inhibition at 20 µg/mL (isolated lymphocytes; Homo sapiens, Lymphocyte, 20 μg/mL, read-out: Isolated lymphocytes % growth inhibition): 76.3 ± 3.65%; IC50 (isolated lymphocytes; Homo sapiens, Lymphocyte): 6.66 ± 0.09 µg/mL (≈ 8.07 µM) |
